The assay concerns the target T1, hTRPV3 (Homo sapiens, UniProt Q8NET8).
T1 construct: expressed in transfected cells; host or cells: HEK293T
T1 sequence (Q8NET8 1-790): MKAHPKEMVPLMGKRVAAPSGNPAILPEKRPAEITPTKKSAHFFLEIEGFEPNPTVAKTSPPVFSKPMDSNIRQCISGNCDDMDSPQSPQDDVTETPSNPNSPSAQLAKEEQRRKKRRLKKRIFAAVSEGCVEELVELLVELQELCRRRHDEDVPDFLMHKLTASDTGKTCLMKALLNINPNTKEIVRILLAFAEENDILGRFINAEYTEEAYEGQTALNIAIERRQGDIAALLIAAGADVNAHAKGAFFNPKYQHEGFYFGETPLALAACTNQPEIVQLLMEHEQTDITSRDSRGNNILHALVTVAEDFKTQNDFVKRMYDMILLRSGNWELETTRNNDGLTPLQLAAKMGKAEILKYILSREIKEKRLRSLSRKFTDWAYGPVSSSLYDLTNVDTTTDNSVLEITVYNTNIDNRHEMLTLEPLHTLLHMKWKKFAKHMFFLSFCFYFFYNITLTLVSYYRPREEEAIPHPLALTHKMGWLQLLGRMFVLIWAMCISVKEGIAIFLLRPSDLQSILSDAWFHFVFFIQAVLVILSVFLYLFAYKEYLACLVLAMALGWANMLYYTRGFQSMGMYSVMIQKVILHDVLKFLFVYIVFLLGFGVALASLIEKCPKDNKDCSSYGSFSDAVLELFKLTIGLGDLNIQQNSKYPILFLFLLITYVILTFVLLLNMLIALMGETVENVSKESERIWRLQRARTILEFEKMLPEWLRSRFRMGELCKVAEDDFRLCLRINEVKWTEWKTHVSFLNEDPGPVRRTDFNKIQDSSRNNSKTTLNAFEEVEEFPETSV
Nature of the assay: single-channel inside-out patch recordings of hTRPV3 in HEK293T cells. Type of assay: cell-based. The note with it: for single-channel open probability: n = 5. As to the method:
HEK293T cell line was obtained from the Cell Resource Center, Peking Union Medical College. HEK293T cells were maintained in Dulbecco’s modified Eagle’s medium (DMEM, Gibco) supplemented with 10% fetal bovine serum at 37 °C with 5% CO2. HEK293T cells were seeded onto glass coverslips 1 day in advance and transiently transfected with […] complementary deoxyribonucleic acids of human TRPV3 (hTRPV3, accession number NM_145068.4), hTRPV1 (accession number NM_080704.3), mTRPV2 (accession number NM_011706.2), hTRPV4 (accession number NM_021625.5), hTRPA1 (accession number NM_007332.3), and hTRPM8 (accession number NM_024080.5) through Lipofectamine 2000 (Invitrogen) following the manufacture’s protocol. The next day, determine the plasmid transfection status by observing green fluorescence based on expression of enhanced GFP as an indicator. […] As for the relative fluorescence intensity, we convert the image to 8 bit grayscale using ImageJ (Https://imagej.net/software/fiji/downloads) and set an appropriate threshold value to reduce background noise and enhance the image contrast.
All patch-clamp recordings were conducted 16 to 24 h after transfection using an EPC10 amplifier powered by PatchMaster software (HEKA) (https://www.heka.com/downloads/downloads_main.html#down_patchmaster) at room temperature. The borosilicate glass pipettes were pulled using a DMZ universal electrode puller (Zeitz-Instruments GmbH) to achieve the resistances of three to 5 MΩ (for whole-cell recordings) or five to 9 MΩ (for inside-out patch recordings). Currents were recorded at a potential ramp from −100 mV to +100 mV for 1000 ms with 1000-ms intervals (for whole-cell recordings) or a persistent potential of −60 mV (inside-out patch recordings). Both pipette solution and bath solution contained (in mM): 130 NaCl, 3 Hepes, and 0.2 EDTA (pH = 7.2–7.4). All recording data were analyzed using Igor Pro (Wave-metrics) (https://www.wavemetrics.com/order/order_igordownloads.htm) and Origin 8.6 (Origin Lab) (https://www.originlab.com/doc/zh/Quick-Help/Download-Installer).

On to `O=C(/C=C/c1ccc(O)c(O)c1)O[C@H](Cc1ccc(O)c(O)c1)C(=O)O` [ROSA, rosmarinic acid], for which the single-channel open probability was determined as 0.13 ± 0.05 (ROSA 100 μM co-perfused with 2-APB 50 μM) and 0.28 ± 0.06 (ROSA 100 μM co-perfused with Car 300 μM). Moreover, for the setting “ROSA 100 μM with 2-APB 50 μM or Car 300 μM”, the “effect on channel unitary conductance” value is recorded as “without altering the channel unitary conductance”.

These data come from article PMC12206033, “Selective inhibition of TRPV3 channel by natural rosmarinic acid and its analogs for alleviation of skin lesions through downregulation of NF-κB pathway” (The Journal of Biological Chemistry, 2025).
